Test system: Botrytis cinerae
Test: Fungicidal activity against Cucumber Gray Mold Rot (CGM) disease
Assay type: in vivo
Conditions: 50 ppm
Experimental: Botrytis cinerae, which was isolated from cucumber infected thereby, was inoculated on a PDA agar medium and cultured under a 12L/12D cycle at 25° C. for 15 days to form spore. The spores were scraped, filtered through a gauze and then suspended in potato dextrose liquid medium at a concentration of 1×10^6 spore/ml. The spore suspension was sprayed on a cucumber plant having one leaf. The cucumber plant was held in a humidified room at 20° C. for 3 days. L.A. on a leaf was measured to calculate an C.V.

SMILES	Fungicidal Activities CGM (C.V.) [%]
CNC(=O)C(=NOC)c1ccccc1CON=C(C)c1cccc(OC(F)=C(c2ccc(C)cc2)C(F)(F)F)c1 [Compound 192]	75
CCc1ccc(C(=C(F)Oc2cccc(C(C)=NOCc3ccccc3C(=NOC)C(=O)NC)c2)C(F)(F)F)cc1 [Compound 195]	82
CNC(=O)C(=NOC)c1ccccc1CON=C(C)c1cccc(OC(F)=C(c2cccc(Cl)c2)C(F)(F)F)c1 [Compound 201]	85
CON=C(C(=O)OC)c1ccccc1CON=C(C)c1cccc(OC(F)=C(c2cc(Cl)cc(Cl)c2)C(F)(F)F)c1 [Compound 186]	25
CNC(=O)C(=NOC)c1ccccc1CON=C(C)c1cccc(OC(F)=C(c2cc(C)cc(C)c2)C(F)(F)F)c1 [Compound 194]	16
CON=C(C(=O)OC)c1ccccc1CON=C(C)c1cccc(OC(F)=C(c2ccc(C)cc2)C(F)(F)F)c1 [Compound 175]	12
CON=C(C(=O)OC)c1ccccc1CON=C(C)c1cccc(OC(F)=C(c2ccc(F)cc2)C(F)(F)F)c1 [Compound 183]	56
CON=C(C(=O)OC)c1ccccc1CON=C(c1cccc(OC(F)=C(c2ccccc2)C(F)(F)F)c1)C(F)(F)F [Compound 221]	0

Test system: Pyricularia oryzae Carvara KA301
Test: not given
Assay type: in vivo
Conditions: 2 ppm

SMILES	Fungicidal Activities RCV (C.V.) [%]
CNC(=O)C(=NOC)c1ccccc1CON=C(C)c1cccc(OC(F)=C(c2ccc(C)cc2)C(F)(F)F)c1 [Compound 192]	100
CCc1ccc(C(=C(F)Oc2cccc(C(C)=NOCc3ccccc3C(=NOC)C(=O)NC)c2)C(F)(F)F)cc1 [Compound 195]	100
CNC(=O)C(=NOC)c1ccccc1CON=C(C)c1cccc(OC(F)=C(c2cccc(Cl)c2)C(F)(F)F)c1 [Compound 201]	98
CON=C(C(=O)OC)c1ccccc1CON=C(C)c1cccc(OC(F)=C(c2cc(Cl)cc(Cl)c2)C(F)(F)F)c1 [Compound 186]	73
CNC(=O)C(=NOC)c1ccccc1CON=C(C)c1cccc(OC(F)=C(c2cc(C)cc(C)c2)C(F)(F)F)c1 [Compound 194]	95
CON=C(C(=O)OC)c1ccccc1CON=C(C)c1cccc(OC(F)=C(c2ccc(C)cc2)C(F)(F)F)c1 [Compound 175]	76
CON=C(C(=O)OC)c1ccccc1CON=C(C)c1cccc(OC(F)=C(c2ccc(F)cc2)C(F)(F)F)c1 [Compound 183]	99

Same assay, conditions: 50 ppm

SMILES	Fungicidal Activities RCV (C.V.) [%]
CNC(=O)C(=NOC)c1ccccc1CON=C(C)c1cccc(OC(F)=C(c2ccc(C)cc2)C(F)(F)F)c1 [Compound 192]	100
CCc1ccc(C(=C(F)Oc2cccc(C(C)=NOCc3ccccc3C(=NOC)C(=O)NC)c2)C(F)(F)F)cc1 [Compound 195]	96
CNC(=O)C(=NOC)c1ccccc1CON=C(C)c1cccc(OC(F)=C(c2cccc(Cl)c2)C(F)(F)F)c1 [Compound 201]	97
CON=C(C(=O)OC)c1ccccc1CON=C(C)c1cccc(OC(F)=C(c2cc(Cl)cc(Cl)c2)C(F)(F)F)c1 [Compound 186]	83
CNC(=O)C(=NOC)c1ccccc1CON=C(C)c1cccc(OC(F)=C(c2cc(C)cc(C)c2)C(F)(F)F)c1 [Compound 194]	100
CON=C(C(=O)OC)c1ccccc1CON=C(C)c1cccc(OC(F)=C(c2ccc(C)cc2)C(F)(F)F)c1 [Compound 175]	96
CON=C(C(=O)OC)c1ccccc1CON=C(C)c1cccc(OC(F)=C(c2ccc(F)cc2)C(F)(F)F)c1 [Compound 183]	100
CON=C(C(=O)OC)c1ccccc1CON=C(c1cccc(OC(F)=C(c2ccccc2)C(F)(F)F)c1)C(F)(F)F [Compound 221]	41

Test system: Puccinia recondita
Test: Fungicidal activity against Wheat Leaf Rust (WLR) disease
Assay type: in vivo
Conditions: 2 ppm

SMILES	Fungicidal Activities WLR (C.V.) [%]
CNC(=O)C(=NOC)c1ccccc1CON=C(C)c1cccc(OC(F)=C(c2ccc(C)cc2)C(F)(F)F)c1 [Compound 192]	98
CCc1ccc(C(=C(F)Oc2cccc(C(C)=NOCc3ccccc3C(=NOC)C(=O)NC)c2)C(F)(F)F)cc1 [Compound 195]	98
CNC(=O)C(=NOC)c1ccccc1CON=C(C)c1cccc(OC(F)=C(c2cccc(Cl)c2)C(F)(F)F)c1 [Compound 201]	97
CON=C(C(=O)OC)c1ccccc1CON=C(C)c1cccc(OC(F)=C(c2cc(Cl)cc(Cl)c2)C(F)(F)F)c1 [Compound 186]	66
CNC(=O)C(=NOC)c1ccccc1CON=C(C)c1cccc(OC(F)=C(c2cc(C)cc(C)c2)C(F)(F)F)c1 [Compound 194]	20
CON=C(C(=O)OC)c1ccccc1CON=C(C)c1cccc(OC(F)=C(c2ccc(C)cc2)C(F)(F)F)c1 [Compound 175]	86
CON=C(C(=O)OC)c1ccccc1CON=C(C)c1cccc(OC(F)=C(c2ccc(F)cc2)C(F)(F)F)c1 [Compound 183]	99

Same assay, conditions: 10 ppm

SMILES	Fungicidal Activities WLR (C.V.) [%]
CON=C(C(=O)OC)c1ccccc1CON=C(c1cccc(OC(F)=C(c2ccccc2)C(F)(F)F)c1)C(F)(F)F [Compound 221]	91

Same assay, conditions: 50 ppm

SMILES	Fungicidal Activities WLR (C.V.) [%]
CNC(=O)C(=NOC)c1ccccc1CON=C(C)c1cccc(OC(F)=C(c2ccc(C)cc2)C(F)(F)F)c1 [Compound 192]	100
CCc1ccc(C(=C(F)Oc2cccc(C(C)=NOCc3ccccc3C(=NOC)C(=O)NC)c2)C(F)(F)F)cc1 [Compound 195]	100
CNC(=O)C(=NOC)c1ccccc1CON=C(C)c1cccc(OC(F)=C(c2cccc(Cl)c2)C(F)(F)F)c1 [Compound 201]	100
CON=C(C(=O)OC)c1ccccc1CON=C(C)c1cccc(OC(F)=C(c2cc(Cl)cc(Cl)c2)C(F)(F)F)c1 [Compound 186]	99
CNC(=O)C(=NOC)c1ccccc1CON=C(C)c1cccc(OC(F)=C(c2cc(C)cc(C)c2)C(F)(F)F)c1 [Compound 194]	98
CON=C(C(=O)OC)c1ccccc1CON=C(C)c1cccc(OC(F)=C(c2ccc(C)cc2)C(F)(F)F)c1 [Compound 175]	100
CON=C(C(=O)OC)c1ccccc1CON=C(C)c1cccc(OC(F)=C(c2ccc(F)cc2)C(F)(F)F)c1 [Compound 183]	100
CON=C(C(=O)OC)c1ccccc1CON=C(c1cccc(OC(F)=C(c2ccccc2)C(F)(F)F)c1)C(F)(F)F [Compound 221]	100

Test system: Phytophthora infestans
Test: not given
Assay type: in vivo
Conditions: 2 ppm

SMILES	Fungicidal Activities TLB (C.V.) [%]
CNC(=O)C(=NOC)c1ccccc1CON=C(C)c1cccc(OC(F)=C(c2ccc(C)cc2)C(F)(F)F)c1 [Compound 192]	37
CCc1ccc(C(=C(F)Oc2cccc(C(C)=NOCc3ccccc3C(=NOC)C(=O)NC)c2)C(F)(F)F)cc1 [Compound 195]	25
CNC(=O)C(=NOC)c1ccccc1CON=C(C)c1cccc(OC(F)=C(c2cccc(Cl)c2)C(F)(F)F)c1 [Compound 201]	25
CON=C(C(=O)OC)c1ccccc1CON=C(C)c1cccc(OC(F)=C(c2cc(Cl)cc(Cl)c2)C(F)(F)F)c1 [Compound 186]	0
CON=C(C(=O)OC)c1ccccc1CON=C(C)c1cccc(OC(F)=C(c2ccc(F)cc2)C(F)(F)F)c1 [Compound 183]	12

Same assay, conditions: 50 ppm

SMILES	Fungicidal Activities TLB (C.V.) [%]
CNC(=O)C(=NOC)c1ccccc1CON=C(C)c1cccc(OC(F)=C(c2ccc(C)cc2)C(F)(F)F)c1 [Compound 192]	40
CCc1ccc(C(=C(F)Oc2cccc(C(C)=NOCc3ccccc3C(=NOC)C(=O)NC)c2)C(F)(F)F)cc1 [Compound 195]	50
CNC(=O)C(=NOC)c1ccccc1CON=C(C)c1cccc(OC(F)=C(c2cccc(Cl)c2)C(F)(F)F)c1 [Compound 201]	50
CON=C(C(=O)OC)c1ccccc1CON=C(C)c1cccc(OC(F)=C(c2cc(Cl)cc(Cl)c2)C(F)(F)F)c1 [Compound 186]	0
CNC(=O)C(=NOC)c1ccccc1CON=C(C)c1cccc(OC(F)=C(c2cc(C)cc(C)c2)C(F)(F)F)c1 [Compound 194]	0
CON=C(C(=O)OC)c1ccccc1CON=C(C)c1cccc(OC(F)=C(c2ccc(C)cc2)C(F)(F)F)c1 [Compound 175]	0
CON=C(C(=O)OC)c1ccccc1CON=C(C)c1cccc(OC(F)=C(c2ccc(F)cc2)C(F)(F)F)c1 [Compound 183]	50
CON=C(C(=O)OC)c1ccccc1CON=C(c1cccc(OC(F)=C(c2ccccc2)C(F)(F)F)c1)C(F)(F)F [Compound 221]	0

Test system: Rhizoctonia solani AG-1
Test: Fungicidal activity against Rice Sheath Blight (RSB) disease
Conditions: 2 ppm
Experimental: To examine fungicidal activity of the compounds of the present invention, each of the compounds listed in Table 3 and 4 was dissolved in 10% acetone to a concentration of 250 ppm, and Tween-20 was added thereto to a concentration of 250 or 500 ppm. 50 ml of the resulting solution was sprayed on leaves of a host plant. The plant was kept at room temperature for 24 hours to let the solvent evaporate, and then, a pathogenic fungus was inoculated thereonto. The plant was held in a humidity chamber for 24 hours, transferred to an plant growth room kept at 20 to 27° C. and a relative humidity of 60 to 80% and kept to induce disease. […] This procedure was repeated twice for each test. 10% Acetone solution containing 250 ppm of Tween-20 was used as a control.
The fungicidal activity of the compound of the present invention is repressed by a control value (C.V.) calculated as; [formula]
Rhizoctonia solani AG-1 was cultured on a PDA medium (potato 200 g, dextrose 20 g, agar 20 g and distilled water 1 ? for 3 days and the agar disc(diameter 0.6 cm) was inoculated and cultured on sterilized wheat bran medium in a 1 L bottle at 26 to 28° C. for 7 days. A mycelial mass was ground using a homogenizer, inoculated uniformly on soil of a pot wherein a Nakdong rice plant having 2 or 3 leaves and an height of 5 cm grew, and kept in humidity polyvinyl chamber for 5 days to induce RSB. L.A. on a leaf sheath was measured to calculate an C.V.

SMILES	Fungicidal Activities RSB (C.V.) [%]
CNC(=O)C(=NOC)c1ccccc1CON=C(C)c1cccc(OC(F)=C(c2ccc(C)cc2)C(F)(F)F)c1 [Compound 192]	40
CCc1ccc(C(=C(F)Oc2cccc(C(C)=NOCc3ccccc3C(=NOC)C(=O)NC)c2)C(F)(F)F)cc1 [Compound 195]	25
CNC(=O)C(=NOC)c1ccccc1CON=C(C)c1cccc(OC(F)=C(c2cccc(Cl)c2)C(F)(F)F)c1 [Compound 201]	20
CON=C(C(=O)OC)c1ccccc1CON=C(C)c1cccc(OC(F)=C(c2cc(Cl)cc(Cl)c2)C(F)(F)F)c1 [Compound 186]	15
CON=C(C(=O)OC)c1ccccc1CON=C(C)c1cccc(OC(F)=C(c2ccc(C)cc2)C(F)(F)F)c1 [Compound 175]	10
CON=C(C(=O)OC)c1ccccc1CON=C(C)c1cccc(OC(F)=C(c2ccc(F)cc2)C(F)(F)F)c1 [Compound 183]	20

Same assay, conditions: 50 ppm

SMILES	Fungicidal Activities RSB (C.V.) [%]
CNC(=O)C(=NOC)c1ccccc1CON=C(C)c1cccc(OC(F)=C(c2ccc(C)cc2)C(F)(F)F)c1 [Compound 192]	100
CCc1ccc(C(=C(F)Oc2cccc(C(C)=NOCc3ccccc3C(=NOC)C(=O)NC)c2)C(F)(F)F)cc1 [Compound 195]	80
CNC(=O)C(=NOC)c1ccccc1CON=C(C)c1cccc(OC(F)=C(c2cccc(Cl)c2)C(F)(F)F)c1 [Compound 201]	85
CON=C(C(=O)OC)c1ccccc1CON=C(C)c1cccc(OC(F)=C(c2cc(Cl)cc(Cl)c2)C(F)(F)F)c1 [Compound 186]	50
CNC(=O)C(=NOC)c1ccccc1CON=C(C)c1cccc(OC(F)=C(c2cc(C)cc(C)c2)C(F)(F)F)c1 [Compound 194]	64
CON=C(C(=O)OC)c1ccccc1CON=C(C)c1cccc(OC(F)=C(c2ccc(C)cc2)C(F)(F)F)c1 [Compound 175]	65
CON=C(C(=O)OC)c1ccccc1CON=C(C)c1cccc(OC(F)=C(c2ccc(F)cc2)C(F)(F)F)c1 [Compound 183]	100
CON=C(C(=O)OC)c1ccccc1CON=C(c1cccc(OC(F)=C(c2ccccc2)C(F)(F)F)c1)C(F)(F)F [Compound 221]	30

Test system: Erysiphae graminis
Test: Fungicidal activity against Barley Powdery Mildew (BPM) disease
Assay type: in vivo
Conditions: 2 ppm

SMILES	Fungicidal Activities BPM (C.V.) [%]
CNC(=O)C(=NOC)c1ccccc1CON=C(C)c1cccc(OC(F)=C(c2ccc(C)cc2)C(F)(F)F)c1 [Compound 192]	100
CCc1ccc(C(=C(F)Oc2cccc(C(C)=NOCc3ccccc3C(=NOC)C(=O)NC)c2)C(F)(F)F)cc1 [Compound 195]	99
CNC(=O)C(=NOC)c1ccccc1CON=C(C)c1cccc(OC(F)=C(c2cccc(Cl)c2)C(F)(F)F)c1 [Compound 201]	100
CON=C(C(=O)OC)c1ccccc1CON=C(C)c1cccc(OC(F)=C(c2cc(Cl)cc(Cl)c2)C(F)(F)F)c1 [Compound 186]	86
CNC(=O)C(=NOC)c1ccccc1CON=C(C)c1cccc(OC(F)=C(c2cc(C)cc(C)c2)C(F)(F)F)c1 [Compound 194]	0
CON=C(C(=O)OC)c1ccccc1CON=C(C)c1cccc(OC(F)=C(c2ccc(C)cc2)C(F)(F)F)c1 [Compound 175]	83
CON=C(C(=O)OC)c1ccccc1CON=C(C)c1cccc(OC(F)=C(c2ccc(F)cc2)C(F)(F)F)c1 [Compound 183]	100

Same assay, conditions: 10 ppm

SMILES	Fungicidal Activities BPM (C.V.) [%]
CON=C(C(=O)OC)c1ccccc1CON=C(c1cccc(OC(F)=C(c2ccccc2)C(F)(F)F)c1)C(F)(F)F [Compound 221]	96

Same assay, conditions: 50 ppm

SMILES	Fungicidal Activities BPM (C.V.) [%]
CNC(=O)C(=NOC)c1ccccc1CON=C(C)c1cccc(OC(F)=C(c2ccc(C)cc2)C(F)(F)F)c1 [Compound 192]	100
CCc1ccc(C(=C(F)Oc2cccc(C(C)=NOCc3ccccc3C(=NOC)C(=O)NC)c2)C(F)(F)F)cc1 [Compound 195]	100
CNC(=O)C(=NOC)c1ccccc1CON=C(C)c1cccc(OC(F)=C(c2cccc(Cl)c2)C(F)(F)F)c1 [Compound 201]	100
CON=C(C(=O)OC)c1ccccc1CON=C(C)c1cccc(OC(F)=C(c2cc(Cl)cc(Cl)c2)C(F)(F)F)c1 [Compound 186]	100
CNC(=O)C(=NOC)c1ccccc1CON=C(C)c1cccc(OC(F)=C(c2cc(C)cc(C)c2)C(F)(F)F)c1 [Compound 194]	98
CON=C(C(=O)OC)c1ccccc1CON=C(C)c1cccc(OC(F)=C(c2ccc(C)cc2)C(F)(F)F)c1 [Compound 175]	100
CON=C(C(=O)OC)c1ccccc1CON=C(C)c1cccc(OC(F)=C(c2ccc(F)cc2)C(F)(F)F)c1 [Compound 183]	100
CON=C(C(=O)OC)c1ccccc1CON=C(c1cccc(OC(F)=C(c2ccccc2)C(F)(F)F)c1)C(F)(F)F [Compound 221]	100

Source: US6552080B1, “Fungicidal compounds having a fluorovinyl-or fluoropropenyl-oxyphenyloxime moiety and process for the preparation thereof” (Korea Research Institute of Chemical Technology, priority 1999, dated 2003)
